Patent US8017775B2, “1-2-dihydroquinoline derivative having glucocorticoid receptor binding activity” (Santen Pharmaceutical Co., Ltd., priority 2005, dated 2011)

Target: T1, Recombinant human GR (Homo sapiens, UniProt P04150)
T1 construct: purchased Invitrogen P2816
T1 sequence (P04150 1-777): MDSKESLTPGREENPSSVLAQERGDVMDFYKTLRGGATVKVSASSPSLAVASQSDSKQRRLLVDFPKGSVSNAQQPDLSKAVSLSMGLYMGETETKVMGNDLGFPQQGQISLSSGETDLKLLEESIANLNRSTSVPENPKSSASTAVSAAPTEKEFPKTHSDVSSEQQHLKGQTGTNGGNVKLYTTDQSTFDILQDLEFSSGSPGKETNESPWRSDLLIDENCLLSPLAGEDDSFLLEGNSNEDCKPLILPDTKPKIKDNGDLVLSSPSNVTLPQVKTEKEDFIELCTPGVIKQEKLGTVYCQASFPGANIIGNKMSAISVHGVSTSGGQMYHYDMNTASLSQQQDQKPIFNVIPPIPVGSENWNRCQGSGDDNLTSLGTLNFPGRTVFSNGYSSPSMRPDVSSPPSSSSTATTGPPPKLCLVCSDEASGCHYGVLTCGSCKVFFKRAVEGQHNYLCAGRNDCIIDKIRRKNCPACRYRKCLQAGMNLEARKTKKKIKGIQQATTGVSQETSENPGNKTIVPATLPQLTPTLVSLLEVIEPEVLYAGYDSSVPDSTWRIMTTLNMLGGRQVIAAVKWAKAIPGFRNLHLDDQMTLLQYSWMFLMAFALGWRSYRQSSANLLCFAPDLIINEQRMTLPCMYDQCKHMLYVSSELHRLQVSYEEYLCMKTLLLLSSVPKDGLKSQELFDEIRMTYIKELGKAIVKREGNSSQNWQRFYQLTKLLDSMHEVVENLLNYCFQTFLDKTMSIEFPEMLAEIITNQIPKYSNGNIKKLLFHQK
Experiment: GR competitor assay by fluorescence polarization (GR binding ratio)
Details: positive control 2 mM dexamethasone, a GR binding ratio of 100% or more is indicated by 100%
Procedure: 1. Evaluation Test for Binding Activity to Glucocorticoid Receptor (hereinafter referred to as “GR”)
In order to evaluate a binding activity to GR, a receptor competitor assay was carried out by a fluorescence polarization method. In the assay, a GR competitor assay kit (manufactured by Invitrogen, cat No. P2816) was used, and a procedure was carried out according to the protocol attached to the kit. Hereinafter, the specific method will be described.
GR screening buffer: A buffer containing 10 mM potassium phosphate (pH 7.4), 20 mM sodium molybdate (Na2MoO4), 0.1 mM ethylene diamine tetraacetic acid (EDTA), 5 mM dithiothreitol (DTT), 0.1 mM stabilizing peptide and 2% dimethylsulfoxide was prepared.
4×GS1 solution: Fluormone™ GS1, which is a fluorescent glucocorticoid ligand, was diluted with GR screening buffer, whereby a 4 nM solution was prepared.
4×GR solution: Recombinant human GR was diluted with GR screening buffer, whereby a 16 nM solution was prepared.
After a test compound was dissolved in dimethylsulfoxide, the resulting solution was diluted with GR screening buffer, whereby a 20 μM test compound solution was prepared.
1) The test compound solution was added in an amount of 25 μL or 10 μL into each well of a 96-well or 384-well plate, and then, 4×GS1 solution and 4×GR solution were added in an amount of 12.5 μL or 5 μL into each well, respectively.
2) The plate was incubated in a dark place at room temperature for 2 to 4 hours.
3) By using a multimode plate reader, Analyst™ HT (manufactured by LJL Biosystems), fluorescence polarization of each well was measured. As the blank, a well containing GR screening buffer in place of the test compound and 4×GS1 solution was used.
4) The same procedure as that in the above 1) to 3) was carried out except that GR screening buffer was used in place of the test compound solution, and the obtained result was taken as the negative control.
5) The same procedure as that in the above 1) to 3) was carried out except that 2 mM dexamethasone was used in place of the test compound solution, and the obtained result was taken as the positive control.
A GR binding ratio (%) was calculated from the following equation.
GR binding ratio (%)=100×[1−(fluorescence polarization of test compound solution−fluorescence polarization of positive control solution)/(fluorescence polarization of negative control solution−fluorescence polarization of positive control solution)]

Structure (SMILES): COc1ccccc1NCc1c(-c2ccc(F)cc2OC)ccc2c1C(C)=CC(C)(C)N2 [Compound 6-20, 6-(4-Fluoro-2-methoxyphenyl)-5-(2-methoxyphenylaminomethyl)-2,2,4-trimethyl-1,2-dihydroquinoline]
- GR Binding ratio (%): ≥ 100%

Structure (SMILES): C=CCOc1ccc(-c2ccc3c(c2COc2cc(F)ccc2C)C(C)=CC(C)(C)N3)c(OC)c1 [Compound 15-7, 6-(4-Allyloxy-2-methoxyphenyl)-5-(5-fluoro-2-methylphenoxymethyl)-2,2,4-trimethyl-1,2-dihydroquinoline]
- GR Binding ratio (%): ≥ 100%

Structure (SMILES): COc1ccc(C(=O)OCc2c(-c3cc(F)ccc3OC)ccc3c2C(C)=CC(C)(C)N3)cc1 [Compound 12-75, 6-(5-Fluoro-2-methoxyphenyl)-5-(4-metoxybenzoyloxymethyl)-2,2,4-trimethyl-1,2-dihydroquinoline]
- GR Binding ratio (%): ≥ 100%

Structure (SMILES): COc1cc(F)ccc1-c1ccc2c(c1COc1cc(F)ccc1C)C(C)=CC(C)(C)N2 [Compound 3-48, 6-(4-Fluoro-2-methoxyphenyl)-5-(5-fluoro-2-methylphenoxymethyl)-2,2,4-trimethyl-1,2-dihydroquinoline]
- GR Binding ratio (%): ≥ 100%

Structure (SMILES): COc1cc(F)ccc1-c1ccc2c(c1COc1cc([N+](=O)[O-])ccc1C)C(C)=CC(C)(C)N2 [Compound 3-72, 6-(4-Fluoro-2-methoxyphenyl)-5-(2-methyl-5-nitrophenoxymethyl)-2,2,4-trimethyl-1,2-dihydroquinoline]
- GR Binding ratio (%): ≥ 100%

Structure (SMILES): CCOc1cc(F)ccc1-c1ccc2c(c1COC(=O)c1ccc(C)s1)C(C)=CC(C)(C)N2 [Compound 12-58, 6-(2-Ethoxy-4-fluorophenyl)-5-[(5-methylthiophen-2-yl)carbonyloxymethyl]-2,2,4-trimethyl-1,2-dihydroquinoline]
- GR Binding ratio (%): ≥ 100%

Structure (SMILES): COc1ccc(C(F)(F)F)cc1-c1ccc2c(c1COC(=O)c1ccc(C)s1)C(C)=CC(C)(C)N2 [Compound 12-73, 6-(2-Methoxy-5-trifluoromethylphenyl)-5-(5-methylthiophen-2-ylcarbonyloxymethyl)-2,2,4-trimethyl-1,2-dihydroquinoline]
- GR Binding ratio (%): ≥ 100%

Structure (SMILES): C/C=C/c1ccccc1OCc1c(-c2ccc(F)cc2OC)ccc2c1C(C)=CC(C)(C)N2 [Compound 3-62, 6-(4-Fluoro-2-methoxyphenyl)-5-[2-(1-propenyl)phenoxymethyl]-2,2,4-trimethyl-1,2-dihydroquinoline]
- GR Binding ratio (%): ≥ 100%

Structure (SMILES): COc1ccc(C(=O)OCc2c(-c3ccc(F)cc3OC)ccc3c2C(C)=CC(C)(C)N3)s1 [Compound 12-33, 6-(4-Fluoro-2-methoxyphenyl)-5-[(5-methoxythiophen-2-yl)carbonyloxymethyl]-2,2,4-trimethyl-1,2-dihydroquinoline]
- GR Binding ratio (%): ≥ 100%

Structure (SMILES): COc1cc(F)c(F)cc1-c1ccc2c(c1CNc1ccccc1C)C(C)=CC(C)(C)N2 [Compound 6-59, 6-(4,5-Difluoro-2-methoxyphenyl)-5-(2-methylphenylaminomethyl)-2,2,4-trimethyl-1,2-dihydroquinoline]
- GR Binding ratio (%): 96%

Structure (SMILES): COc1ccc(Cl)cc1-c1ccc2c(c1COc1cc([N+](=O)[O-])ccc1C)C(C)=CC(C)(C)N2 [Compound 14-12, 6-(5-Chloro-2-methoxyphenyl)-5-(2-methyl-5-nitrophenoxymethyl)-2,2,4-trimethyl-1,2-dihydroquinoline]
- GR Binding ratio (%): ≥ 100%

Structure (SMILES): COc1cc(F)ccc1-c1ccc2c(c1COC(=O)c1ccccc1C)C(C)=CC(C)(C)N2 [Compound 1-46, 6-(4-Fluoro-2-methoxyphenyl)-5-(2-methylbenzoyloxymethyl)-2,2,4-trimethyl-1,2-dihydroquinoline]
- GR Binding ratio (%): ≥ 100%

Structure (SMILES): COc1cc(F)ccc1-c1ccc2c(c1COc1ccccc1C(C)C)C(C)=CC(C)(C)N2 [Compound 3-69, 5-(2-Isopropylphenoxymethyl)-6-(4-fluoro-2-methoxyphenyl)-2,2,4-trimethyl-1,2-dihydroquinoline]
- GR Binding ratio (%): ≥ 100%

Structure (SMILES): COc1cc(F)ccc1-c1ccc2c(c1COc1cc(C)ccc1C)C(C)=CC(C)(C)N2 [Compound 3-58, 5-(2,5-Dimethylphenoxymethyl)-6-(4-fluoro-2-methoxyphenyl)-2,2,4-trimethyl-1,2-dihydroquinoline]
- GR Binding ratio (%): ≥ 100%

Structure (SMILES): COc1cc(F)ccc1-c1ccc2c(c1COC(=O)c1sccc1Cl)C(C)=CC(C)(C)N2 [Compound 12-17, 5-[(3-Chlorothiophen-2-yl)carbonyloxymethyl]-6-(4-fluoro-2-methoxyphenyl)-2,2,4-trimethyl-1,2-dihydroquinoline]
- GR Binding ratio (%): ≥ 100%

Structure (SMILES): COc1ccc(F)cc1-c1ccc2c(c1COc1cc(F)ccc1C)C(C)=CC(C)(C)N2 [Compound 14-43, 6-(5-Fluoro-2-methoxyphenyl)-5-(5-fluoro-2-methylphenoxymethyl)-2,2,4-trimethyl-1,2-dihydroquinoline]
- GR Binding ratio (%): ≥ 100%

Structure (SMILES): CCOc1ccccc1NCc1c(-c2ccc(F)cc2OC)ccc2c1C(C)=CC(C)(C)N2 [Compound 6-24, 5-(2-Ethoxyphenylaminomethyl)-6-(4-fluoro-2-methoxyphenyl)-2,2,4-trimethyl-1,2-dihydroquinoline]
- GR Binding ratio (%): ≥ 100%

Structure (SMILES): COc1ccc(Cl)cc1-c1ccc2c(c1COc1cc(F)ccc1C)C(C)=CC(C)(C)N2 [Compound 14-13, 6-(5-Chloro-2-methoxyphenyl)-5-(5-fluoro-2-methylphenoxymethyl)-2,2,4-trimethyl-1,2-dihydroquinoline]
- GR Binding ratio (%): ≥ 100%

Structure (SMILES): COc1cc(F)ccc1-c1ccc2c(c1CNc1cc(C)ccc1C)C(C)=CC(C)(C)N2 [Compound 6-53, 5-(2,5-Dimethylphenylaminomethyl)-6-(4-fluoro-2-methoxyphenyl)-2,2,4-trimethyl-1,2-dihydroquinoline]
- GR Binding ratio (%): 95%

Structure (SMILES): COc1cc(F)ccc1-c1ccc2c(c1COC(=O)c1ccc(Br)s1)C(C)=CC(C)(C)N2 [Compound 12-25, 5-[(5-Bromothiophen-2-yl)carbonyloxymethyl]-6-(4-fluoro-2-methoxyphenyl)-2,2,4-trimethyl-1,2-dihydroquinoline]
- GR Binding ratio (%): ≥ 100%

Structure (SMILES): COc1ccccc1NCc1c(-c2cc(F)ccc2OC)ccc2c1C(C)=CC(C)(C)N2 [Compound 6-75, 6-(5-Fluoro-2-methoxyphenyl)-5-(2-methoxyphenylaminomethyl)-2,2,4-trimethyl-1,2-dihydroquinoline]
- GR Binding ratio (%): ≥ 100%

Structure (SMILES): COc1ccc(Cl)cc1-c1ccc2c(c1COC(=O)c1ccc(C)s1)C(C)=CC(C)(C)N2 [Compound 12-69, 6-(5-Chloro-2-methoxyphenyl)-5-(5-methylthiophen-2-ylcarbonyloxymethyl)-2,2,4-trimethyl-1,2-dihydroquinoline]
- GR Binding ratio (%): ≥ 100%

Structure (SMILES): C=CCc1ccccc1OCc1c(-c2cc(F)ccc2OC)ccc2c1C(C)=CC(C)(C)N2 [Compound 14-45, 5-(2-Allylphenoxymethyl)-6-(5-fluoro-2-methoxyphenyl)-2,2,4-trimethyl-1,2-dihydroquinoline]
- GR Binding ratio (%): ≥ 100%

Structure (SMILES): C=CCc1ccccc1OCc1c(-c2cc(C)ccc2OC)ccc2c1C(C)=CC(C)(C)N2 [Compound 14-21, 5-(2-Allylphenoxymethyl)-6-(2-methoxy-5-methylphenyl)-2,2,4-trimethyl-1,2-dihydroquinoline]
- GR Binding ratio (%): 99%
